The source of these data is PMC3045627 (Journal of medicinal chemistry, 2010).

Like-named read-outs stand apart in the source and are kept apart here.

Assay [1] concerns the target human farnesyltransferase (hFTase) (Homo sapiens, UniProt P49354+P49356). Kind of assay: In vitro hFTase inhibition: incorporation of [3H]FPP into recombinant H-Ras-CVLS. Format: biochemical. The note with it: for selectivity (ratio of GGTase-I to FTase IC50s): GGTase-I IC50 / hFTase IC50; for fold improvement in hFTase inhibitory activity relative to 1az: relative to parent 1az.

The subject of assay [2] is farnesylation of H-Ras in oncogenic H-Ras-transformed NIH3T3 cells. Briefly: Whole cell inhibition of farnesylation. In kind it is cell-based. The conditions noted are these: Mus musculus.

Consider `Cn1cnc(S(=O)(=O)N(CCN(Cc2cncn2C)c2ccc(C#N)cc2)Cc2ccsc2)c1` [1ai, [N-(Thiophen-3-ylmethyl), N-{2-[(4-Cyanophenyl)-(3-methyl-3H-imidazol-4-ylmethyl)-amino]-ethyl}] 1-Methyl-1H-imidazole-4-sulfonamide], for which the “times as potent against hFTase as isomeric 1ak” value in assay [1] (relative to 1ak) was “more than 34 times”.

As for `Cn1cnc(S(=O)(=O)N(CCN(Cc2cncn2C)c2ccc(C#N)cc2)Cc2ccncc2)c1` [1af], in assay [1], the “selectivity (ratio of GGTase-I to FTase IC50s)” value was over 139.

On to `Cn1cnc(S(=O)(=O)N(CCCN(Cc2cncn2C)c2ccc(C#N)cc2)Cc2ccccc2)c1` [20a], for which the “fold drop in hFTase inhibitory activity relative to 1a” value in assay [1] (relative to 1a) was over 7 fold.

Regarding `Cn1cnc(S(=O)(=O)N(CCN(Cc2cncn2C)c2ccc(C#N)cc2)CC2CCN(c3ncccn3)CC2)c1` [1az], the “fold recovery of hFTase activity relative to 1ay” value in assay [1] (relative to 1ay) is on record as “more than 7 fold”.

Consider `Cc1c(CN(CCN(Cc2cncn2C)c2ccc(C#N)cc2)S(=O)(=O)c2cn(C)cn2)cnn1C` [1an, [N-(1,3,5-Trimethyl-1H-pyrazol-4-ylmethyl), N-{2-[(4-Cyanophenyl)-(3-methyl-3H-imidazol-4-ylmethyl)-amino]-ethyl}] 1-Methyl-1H-imidazole-4-sulfonamide], for which the “selectivity (ratio of GGTase-I to FTase IC50s)” value in assay [1] is recorded as over 1.9.

With `Cn1cnc(S(=O)(=O)N(CCN(Cc2cncn2C)c2ccc(C#N)cc2)CC2CCN(C(=O)OC(C)(C)C)CC2)c1` [1ay], the “fold drop in hFTase inhibition relative to 1ax” value in assay [1] (relative to 1ax) is over 60 fold.

For `Cn1cnc(S(=O)(=O)N(CCN(Cc2cncn2C)c2ccc(C#N)cc2)CC2CCCCC2)c1` [1ax], in assay [1] (selectivity for hFTase over GGTase-I), the GGTase-I/FTase selectivity entry is “about 9 fold”. Also, the IC50 in assay [2] (NIH3T3, read-out: processing IC50 (μM) H-Ras) was 0.1 ± 0.07 µM; in assay [2] (NIH3T3, read-out: whole cell H-Ras processing IC50) it was about 0.09 µM.

As for `Cn1cnc(S(=O)(=O)N(CCN(Cc2cncn2C)c2ccc(C#N)nc2)CC2CCN(c3ncccn3)CC2)c1` [19b, N-(2-((2-Cyanopyridin-5-yl)((1-methyl-1H-imidazol-5-yl)methyl)-amino)ethyl)-1-methyl-N-((1-(pyrimidin-2-yl)piperidin-4-yl)methyl)-1H-imidazole-4-sulfonamide], the “selectivity (ratio of GGTase-I to FTase IC50s)” value in assay [1] is recorded as over 19.

On to `Cn1cnc(S(=O)(=O)N(CCN(Cc2cncn2C)c2ccc(C#N)cc2)Cc2ccc(-n3cccc3)cc2)c1` [1av], for which the “fold improvement of in vitro hFTase inhibition relative to 1au” value in assay [1] (relative to 1au) was “approximately 4 fold”.

For the compound `Cn1cnc(S(=O)(=O)N(CCN(Cc2cncn2C)c2ccc(C#N)cc2Cl)CC2CCN(c3ncccn3)CC2)c1` [19a, [N-{2-[(2-Chloro-4-cyanophenyl)-(3-methyl-3H-imidazol-4-ylmethyl)-amino]-ethyl}, N-{N-(2-Pyrimidinyl)-piperidin-4-ylmethyl}] 1-Methyl-1H-imidazole-4-sulfonamide], the “selectivity (ratio of GGTase-I to FTase IC50s)” value in assay [1] is on record as over 18.

`Cn1cnc(S(=O)(=O)N(CCN(Cc2cncn2C)c2ccc(C#N)cc2F)CC2CCN(c3ncccn3)CC2)c1` [19f, [N-{2-[(2-Fluoro-4-cyanophenyl)-(3-methyl-3H-imidazol-4-ylmethyl)-amino]-ethyl}, N-{N-(2-Pyrimidinyl)-piperidin-4-ylmethyl}] 1-Methyl-1H-imidazole-4-sulfonamide]: the “fold improvement in hFTase inhibitory activity relative to 1az” value in assay [1] is given as “approximately 8 fold”.

Take `Cn1cnc(S(=O)(=O)N(CCN(Cc2cncn2C)c2ccc(C#N)c(F)c2)CC2CCN(c3ncccn3)CC2)c1` [19e, [N-{2-[(3-Fluoro-4-cyanophenyl)-(3-methyl-3H-imidazol-4-ylmethyl)-amino]-ethyl}, N-{N-(2-Pyrimidinyl)-piperidin-4-ylmethyl}] 1-Methyl-1H-imidazole-4-sulfonamide]: the “fold improvement in hFTase inhibitory activity relative to 1az” value in assay [1] was found to be 2 fold.

By IC50 is commonly meant the concentration that gives 50% inhibition.
